Experimental data taken from PMC5642494 (Oncotarget, 2017).

What was measured:
[1] = system: MCF7 cells; test: Ki-67 protein expression, MCF7; type: cell-based; conditions: Homo sapiens, 2 DT, read-out: EC50 Ki-67 levels
Procedure: Relative IC50/EC50 values were determined by curve fitting to a four parameter logistic equation: Y = bottom + ((top-bottom)/ (1+exp(HillSlope*(X – LnIC50)), where X is the natural log of dose/concentration, Y is response, decreasing as X increases, top and bottom are plateaus in the same units as Y, lnIC50 is the natural log of potency, in the same log units as X, and HillSlope measures the steepness of the curve. Data were plotted using GraphPad Prism.
After 72 hours, cells were stained with an anti-FOXM1 antibody and a secondary goat anti-rabbit IgG, Alexa Fluor® 488 conjugate; nuclei were stained with propidium iodide (PI). Alternatively, for assessment of Ki-67 levels, cells were treated for 2 DT and then stained with Ki-67 and a secondary goat anti-rabbit IgG, Alexa Fluor® 488 conjugate. Plates were read in an Acumen Explorer Ex3 (TTP Labtech) using Cellista software and the percentages of FOXM1 positive and Ki-67 positive cells were calculated over the background signal. Data were normalized in Excel using the mean value obtained from treatment with 2 µM BEZ235 as the minimum and the mean value obtained from treatment with 0.2% DMSO as the maximum.

[2] = system: HR+ and HR- breast cancer cell lines; test: Proliferation after washouts (EdU Click-iT) in breast cancer lines; type: cell-based, human
Procedure: Images were SA-β-galactosidase immunocytochemical labeling taken by fluorescent microscopy using a Leica DMiL. […] SA-β-gal Cell samples were lysed after treatment with expression was determined using the Senescence Cells 100 μL lysis buffer and transferred to a 96-well plate. Histochemical Staining Kit (Sigma, CS0030) following 30 μL of each sample were transferred into deep well the vendor 's manual. Images were taken at 100x by bright plates using TECAN-EVO Workstation. Samples were field microscopy (Leica DMiL). treated for derivatization of the metabolites of interest and internal standards. For this, 50 μL of derivatization reagent Proliferation studies after washouts (EdU Click- and 80 μL of internal standard (IS, SupplementaryTable iT®) 1), were added with multidrop, plates were vortexed for 5 mins and let sit for one hour at 4 °C. The IS used were the Cells were plated onto poly-D-lysine D or 13C-labeled commercial analogues of nine of the ten coated 96-well plates at a density of 2,000-6,000 metabolites, prepared at 25 μM in water (Supplementary viable cells per well, and treated with abemaciblib or Table 1). The derivatization reagents (from Sigma), […] washout schedule shown on Supplementary Figure 1A. […] EdU Samples were analyzed by LC-MS/MS under the detection was performed using the Click-iT High Content conditions described below. […] Cell images were captured using a Cellomics Arrayscan VTI and analyzed Analysis of the derivatized-extracted samples with the Target Activation bio-application V.3 reading in 4 was carried out with an Agilent 6460 Triple Quadrupole channels at a magnification of 10X. […] The software relative levels and sub-cellular localization of EdU were for data collection and treatment was Agilent Masshunter determined through the respective intensities and locations Workstation. Mobile phases for chromatography were: of Alexa-488 fluorescence. mobile phase A: formic acid (5 mM) and ammonium formate (10 mM) in water; mobile phase B: acetonitrile. […]

[3] = system: MCF7 cells; test: Annexin V/PI flow cytometry, MCF7; type: cell-based, human; conditions: 3 DT (untreated 11.1%)
Procedure: Annexin V/PI staining was performed following the vendor’s specifications in MCF7 and MDA-MB-361 cells. […] Raw data were analyzed with FlowJo X software. Events were gated for debris exclusion and singlets selection. A minimum of 10,000 cells were analyzed per sample.

EC50 [1]: 42.1 nM
SMILES: CCN1CCN(Cc2ccc(Nc3ncc(F)c(-c4cc(F)c5nc(C)n(C(C)C)c5c4)n3)nc2)CC1 [abemaciclib, Abemaciclib]
DNA synthesis / proliferation as measured by EdU incorporation ([2]; HR+ versus HR- breast cancer cell lines, exposure 2 hr, 24 hr or 72 hrs followed by washout): preferentially reduced in HR+ compared to HR- cell lines
sensitivity of HR- cell lines with RB1 mutation or loss (EdU incorporation) ([2]; MDA-MB-468, BT549, BT20, HCC1937, HCC70): insensitive
cells positive for annexin V ([3]; 0.5 µM): 41.4%
cells positive for annexin V ([3]; 2 µM): 66.7%
